{
  "source": "PubChem BioAssay AID2060601",
  "about": "(Molecular Pharmacology Branch, DTP, NCI, 2025);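 further: spheroids exposed to the compounds for 7 days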;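 on viability, T/C: 100% = DMSO vehicle control viability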",
  "system": "874868-142-R-J2-PDC complex spheroids, growth % test/control",
  "assay": "Anticancer human tumor 874868-142-R-J2-PDC patient-derived head and neck squamous carcinoma cell line growth inhibition [CLK]",
  "conditions": "for IC50: curve of first compound; for viability, T/C: stronger effect = lower value",
  "in_short": "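Multi-cell-type spheroids combined patient-derived tumor cells with HUVEC endothelial cells and human mesenchymal stem cells. Paired agents were dosed in half-log steps down from about clinical Cmax, or from 10 microM where Cmax was unknown.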",
  "data": [
    {"smiles": "COc1ccc([C@@H](O)c2cc(-c3ncnc4cc(N5CCOCC5)ccc34)c(F)cc2Cl)nn1", "note": "+ CNC(=O)c1ccc(Nc2nc(OC3CCCC3)c3c(-c4ccc5nc(C)oc5c4)c[nH]c3n2)c(OC)c1", "values": [
      {"measurement": "IC50", "setting": "second compound 0.0316 µM", "result": 2250, "unit": "nM"},
      {"measurement": "IC50", "setting": "second compound 0.1 µM", "result": 3710, "unit": "nM"},
      {"measurement": "IC50", "setting": "second compound 0.316 µM", "result": 517, "unit": "nM"},
      {"measurement": "IC50", "setting": "second compound 1 µM", "result": "< 31.6", "unit": "nM"},
      {"measurement": "IC50", "setting": "second compound 3.16 µM", "result": "< 31.6", "unit": "nM"},
      {"measurement": "IC50", "setting": "second compound 10 µM", "result": "< 31.6", "unit": "nM"},
      {"measurement": "viability, T/C", "setting": "second compound 0.0316 µM, first compound 0.0316 µM", "result": 106, "unit": "%"},
      {"measurement": "viability, T/C", "setting": "second compound 0.0316 µM, first compound 0.1 µM", "result": 100, "unit": "%"},
      {"measurement": "viability, T/C", "setting": "second compound 0.0316 µM, first compound 0.316 µM", "result": 101, "unit": "%"},
      {"measurement": "viability, T/C", "setting": "second compound 0.0316 µM, first compound 1 µM", "result": 64.5, "unit": "%"},
      {"measurement": "viability, T/C", "setting": "second compound 0.0316 µM, first compound 3.16 µM", "result": 47.6, "unit": "%"},
      {"measurement": "viability, T/C", "setting": "second compound 0.0316 µM, first compound 10 µM", "result": 31.7, "unit": "%"},
      {"measurement": "viability, T/C", "setting": "second compound 0.1 µM, first compound 0.0316 µM", "result": 81.5, "unit": "%"},
      {"measurement": "viability, T/C", "setting": "second compound 0.1 µM, first compound 0.1 µM", "result": 89.7, "unit": "%"},
      {"measurement": "viability, T/C", "setting": "second compound 0.1 µM, first compound 0.316 µM", "result": 73.7, "unit": "%"},
      {"measurement": "viability, T/C", "setting": "second compound 0.1 µM, first compound 1 µM", "result": 67.5, "unit": "%"},
      {"measurement": "viability, T/C", "setting": "second compound 0.1 µM, first compound 3.16 µM", "result": 52.6, "unit": "%"},
      {"measurement": "viability, T/C", "setting": "second compound 0.1 µM, first compound 10 µM", "result": 36.9, "unit": "%"},
      {"measurement": "viability, T/C", "setting": "second compound 0.316 µM, first compound 0.0316 µM", "result": 52.7, "unit": "%"},
      {"measurement": "viability, T/C", "setting": "second compound 0.316 µM, first compound 0.1 µM", "result": 60, "unit": "%"},
      {"measurement": "viability, T/C", "setting": "second compound 0.316 µM, first compound 0.316 µM", "result": 55.6, "unit": "%"},
      {"measurement": "viability, T/C", "setting": "second compound 0.316 µM, first compound 1 µM", "result": 40.5, "unit": "%"},
      {"measurement": "viability, T/C", "setting": "second compound 0.316 µM, first compound 3.16 µM", "result": 40.3, "unit": "%"},
      {"measurement": "viability, T/C", "setting": "second compound 0.316 µM, first compound 10 µM", "result": 23.4, "unit": "%"},
      {"measurement": "viability, T/C", "setting": "second compound 1 µM, first compound 0.0316 µM", "result": 43.5, "unit": "%"},
      {"measurement": "viability, T/C", "setting": "second compound 1 µM, first compound 0.1 µM", "result": 46.5, "unit": "%"},
      {"measurement": "viability, T/C", "setting": "second compound 1 µM, first compound 0.316 µM", "result": 40, "unit": "%"},
      {"measurement": "viability, T/C", "setting": "second compound 1 µM, first compound 1 µM", "result": 29.7, "unit": "%"},
      {"measurement": "viability, T/C", "setting": "second compound 1 µM, first compound 3.16 µM", "result": 25.1, "unit": "%"},
      {"measurement": "viability, T/C", "setting": "second compound 1 µM, first compound 10 µM", "result": 23.1, "unit": "%"},
      {"measurement": "viability, T/C", "setting": "second compound 3.16 µM, first compound 0.0316 µM", "result": 37.6, "unit": "%"},
      {"measurement": "viability, T/C", "setting": "second compound 3.16 µM, first compound 0.1 µM", "result": 38.9, "unit": "%"},
      {"measurement": "viability, T/C", "setting": "second compound 3.16 µM, first compound 0.316 µM", "result": 45.2, "unit": "%"},
      {"measurement": "viability, T/C", "setting": "second compound 3.16 µM, first compound 1 µM", "result": 32.9, "unit": "%"},
      {"measurement": "viability, T/C", "setting": "second compound 3.16 µM, first compound 3.16 µM", "result": 37, "unit": "%"},
      {"measurement": "viability, T/C", "setting": "second compound 3.16 µM, first compound 10 µM", "result": 23.5, "unit": "%"},
      {"measurement": "viability, T/C", "setting": "second compound 10 µM, first compound 0.0316 µM", "result": 40.4, "unit": "%"},
      {"measurement": "viability, T/C", "setting": "second compound 10 µM, first compound 0.1 µM", "result": 38.6, "unit": "%"},
      {"measurement": "viability, T/C", "setting": "second compound 10 µM, first compound 0.316 µM", "result": 39.2, "unit": "%"},
      {"measurement": "viability, T/C", "setting": "second compound 10 µM, first compound 1 µM", "result": 28.6, "unit": "%"},
      {"measurement": "viability, T/C", "setting": "second compound 10 µM, first compound 3.16 µM", "result": 32.3, "unit": "%"},
      {"measurement": "viability, T/C", "setting": "second compound 10 µM, first compound 10 µM", "result": 18.6, "unit": "%"}
    ]}
  ]
}
